Data as given in patent publication US11839607B2, “Memantine paroxetine cocrystal salt and its preparation method, pharmaceutical composition and application” (priority 2018, dated 2023).
Where two headings read alike, the source gives them in different places.

Test: Pharmacokinetic experiment of memantine paroxetine cocrystal salt in rats (plasma memantine by LC-MS/MS)
Format: in vivo, SD rat
Conditions: gavage
Source text: Determination of the pharmacokinetic parameters of […] and paroxetine in rat plasma by LC-MS/MS method
The memantine paroxetine cocrystal salt prepared in embodiment 1; memantine hydrochloride; dexamethasone (Intermediate inspection office); ammonium formate; methanol is all chromatographic pure (Merck Company); formic acid is all chromatographic pure (Aladdin Company); acetonitrile is all chromatographic pure (Merck Company); experimental water is deionized purified water.
SD rat, SPF grade, male, weight 200-250 g, purchased from Zhejiang Experimental Animal Center, production license No.: SCXK (Zhejiang) 2014-0001.
Liquid mass spectrometer: Thermo Finnigan TSQ Quantum, composed of Surveyor As, Surveyor MS Pump Plus and TSQ Quantum, Thermo Fisher Scientific Company; Sartorius BP-211D electronic balance; Thermo STRATOS high speed freezing centrifuge; Eppendorf PCB-11 micro vortex mixer; Milli-Q Grandient pure water meter.
Chromatographic column: Waters Cortecs C18 (2.1 mm×50 mm, 2.7 μm); column temperature: 35° C.; mobile phase: acetonitrile-[…] ammonium formate containing 0.1% formic acid (10:90); flow rate: 0.2 mL·min^−1; sample injection volume: 5 μL.
Ion detection method: multiple reaction monitoring (MRM); ionic polarity: positive ion (Positive); ionization mode: electrospray ionization (ESI); ionization voltage (IS): 3000.0V; temperature: 300° C.; sheath gas: 35; auxiliary gas: 30.
10 rats are randomly divided into 2 groups, 5 rats in each group: group A: 5.6 mg/kg memantine hydrochloride; group B: 17.4 mg/kg cocrystal salt;
The rats are fasted for 12 h before the experiment, and the tested drugs re given by gavage with the volume of 1 mL/100 g. Before and 5, 10, 20, 40, 60, 120, 180, 240, 360 and 480 min after administration, 0.5 mL of blood is collected through the fundus vein plexus. Anticoagulate the heparin. Centrifugate at 4000 rpm for 10 min, and separate the plasma. It can be used for the determination of memantine concentration.

[1] = male SD rats, same molar dose: group A 5.6 mg/kg memantine hydrochloride, group B 17.4 mg/kg cocrystal salt, average value

Structure (SMILES) | AUC(0-t) [1] [ng·h/L] | AUC(0-∞) [1] [ng·h/mL] | CLz/F [1] [mL/min/kg] | Cmax [1] [ng/L] | MRT(0-t) [1] [h] | MRT(0-∞) [1] [h] | T1/2z [1] [h] | Tmax [1] [min] | AUC(0-∞) ratio, cocrystal salt versus memantine hydrochloride (same molar dose, rats) [times] | Cmax ratio, cocrystal salt versus memantine hydrochloride (same molar dose, rats) [times] | T1/2 ratio, cocrystal salt versus memantine hydrochloride (same molar dose, rats) [times] | Tmax ratio, cocrystal salt versus memantine hydrochloride (same molar dose, rats) [times] | AUC(0-inf) (Sprague-Dawley (SD), rat, po, male SD rats, same molar dose: group A 5.6 mg/kg memantine hydrochloride, group B 17.4 mg/kg cocrystal salt, average value) [ng·h/mL] | AUC(0-t) (Sprague-Dawley (SD), rat, po, male SD rats, same molar dose: group A 5.6 mg/kg memantine hydrochloride, group B 17.4 mg/kg cocrystal salt, average value, read-out: AUC(0-t)) [ng·h/L] | Cmax (Sprague-Dawley (SD), rat, po, male SD rats, same molar dose: group A 5.6 mg/kg memantine hydrochloride, group B 17.4 mg/kg cocrystal salt, average value, read-out: Cmax) [ng/L] | MRT last (Sprague-Dawley (SD), rat, po, male SD rats, same molar dose: group A 5.6 mg/kg memantine hydrochloride, group B 17.4 mg/kg cocrystal salt, average value, read-out: MRT(0-t)) [h] | MRT inf (Sprague-Dawley (SD), rat, po, male SD rats, same molar dose: group A 5.6 mg/kg memantine hydrochloride, group B 17.4 mg/kg cocrystal salt, average value, read-out: MRT(0-∞)) [h] | Tmax (Sprague-Dawley (SD), rat, po, male SD rats, same molar dose: group A 5.6 mg/kg memantine hydrochloride, group B 17.4 mg/kg cocrystal salt, average value, read-out: Tmax) [min]
CC12CC3CC(C)(C1)CC(N)(C3)C2.Fc1ccc([C@@H]2CCNC[C@H]2COc2ccc3c(c2)OCO3)cc1.O.O.O.O=S(=O)(O)O [cocrystal salt, C19H20FNO3·C12H21N·H2SO4·3H2O] | 1982.124 | 3.16723 | 94414.6 | 449.186 | 3.298 | 8.1 | 5.605 | 52.1 | 4.10 | 1.62 | 2.79 | 1.41 |  |  |  |  |  | 
CC12CC3CC(C)(C1)CC(N)(C3)C2.Cl [memantine hydrochloride, 3,5-Dimethyl-1-aminoadamantane hydrochloride, reference compound] |  |  | 123437.1 |  |  |  | 2.009 |  |  |  |  |  | 0.773 | 714 | 276 | 2.43 | 3.05 | 37
